The values that follow come from US9724335B2, “Solid dispersions of insoluble drug and preparation method thereof” (SK BIOPHARMACEUTICALS CO., LTD., priority 2012, dated 2017).

Values after ≈ are worked out from the molar mass of the structure shown.

Series [1] is described as follows: Solubility of CBI in several solvents (24 h stirring at room temperature, HPLC). The class given is physicochemical. The note with it: for solubility at 24 h: organic solvent or mixture, thermodynamic from solid. The procedure: Under several solvent conditions—i.e., distilled water, methanol, ethanol, acetone and diethyl ether—the solubility of CBI was measured. Specifically, about 5 to 40 mg of CBI was introduced into a 1.5 mL microtube, and 1 mL of the test solvent was added thereto. The mixture was slowly stirred in a rotary stirrer for 24 h under the condition of room temperature until solvent equilibrium was reached. After stirring, the suspended solution was filtered through a 0.45 micrometer membrane filter. The supernatant was collected and diluted by two-fold with the same amount of diluent for analysis. The CBI concentration was analyzed by using high-performance liquid chromatography. The column used in the present experiment was a […], 5 μm C18 column, and the mobile phase was a mixture of 35% acetonitrile, 20% methanol and 45% distilled water by volume. The flow rate was 1.0 mL/min, and the detection was performed at 255 nm. The results are shown in Table 11 wherein the values are represented as an average of three repeats ±standard deviation.

The nature of series [2]: Pharmacokinetic test of the solid dispersion for a Beagle dog (oral, plasma CBI by LC-MS/MS). The class given is in vivo. The note with it: oral 40 mg/kg in gelatin capsule, all the time zones (0-24 h), listed as CBI powder. The method, then: Just before the test, three Beagle dogs were weighed respectively. The solid dispersion of Example 3 as the test group and CBI powder as the control group each weighed in the amount corresponding to 40 mg/kg, were filled into a gelatin capsule and then orally administered. Just before and at 0.5, 1, 2, 4, 6, 8 and 24 h after administration, the blood was collected from the popliteal vein. The plasma was separated from the blood sample by centrifugation and stored/kept at −20° C. until analysis thereof. For the analysis, the plasma sample (0.5 ml) was correctly transferred to a 1.5 ml polypropylene centrifuge tube. This mixture was vortexed for 30 sec and centrifuged at 400 rpm for 10 min. The concentration of CBI in the plasma was analyzed by LC-MS/MS. […] The peak was detected by MRM (multiple reaction monitoring) method using triple-quadrupole mass spectrometry. The ionization was analyzed in the positive mode by using electrospray ionization (ESI) wherein the ion spray temperature was set up at 500° C. In the MRM method, the protonated molecular ions of CBI and the internal standard compound were monitored to have the m/z values of 325.1 and 268.0, and the product ions thus produced were monitored to have the m/z values of 91.0 and 155.0, respectively. The area under the concentration-time curve (AUC) of the drug in the plasma was calculated by the linear trapezoidal method.

Turning to `NC(=O)OCc1cc(-c2ccc(OCc3ccccc3)cc2)no1` [CBI, carbamic acid 3-(4-benzyloxy-phenyl)-isoxazol-5-ylmethyl ester], the Solubility entry in series [1] (Distilled Water) is “Not detected”. In addition, the solubility at 24 h was determined as 24800 µg/mL (≈ 76.5 mM) in series [1] (Acetone), 700 µg/mL (≈ 2.16 mM) in series [1] (Diethyl Ether), 1500 µg/mL (≈ 4.62 mM) in series [1] (Ethanol) and 2500 µg/mL (≈ 7.71 mM) in series [1] (Methanol). The “Blood CBI Concentration” value in series [2] is on record as “below the sensitivity for quantification”.
